Results as given in paper PMC9356275, “A quantitative high-throughput screen identifies compounds that lower expression of the SCA2-and ALS-associated gene ATXN2” (The Journal of Biological Chemistry, 2022).
Where a name gives a salt, the structure may show the parent alone. Read-outs that look alike come from different tables or passages of the source.

Tests used:
ATXN2-luc [1] = test: MSSR pilot screen: ATXN2-luc luciferase assay (Bright-Glo) in H2 cells, single 10 μM dose; assay type: cell-based, human; settings: for SD from mean (ATXN2-luc, Z-score): H2 cells, single dose (title: 10 μM compound), overnight; for ¦Score/1SD¦: absolute score divided by 1SD (0.891 or 0.9)
ATXN2-luc [2] = test: Secondary assays: ATXN2-luc in S2 and H2 cells, 12 doses, Bright-Glo; assay type: cell-based, human; settings: summary data; for IC50: Homo sapiens, ATXN2-luc luciferase assays in H2 and S2 cells, 12 doses plus a zero dose, read-out: Mean IC50; for min ATXN2-luc (%): minimum ATXN2-luc signal over 12 doses, H2 and S2 cells
CMV-luc [3] = test: Secondary assays: CMV-luc in SC cells, Bright-Glo; assay type: cell-based, human; settings: minimum CMV-luc signal in SC cells over 12 doses; summary data
Protocol: (§1) Compounds were plated at 2× concentrations in phenol red–free DMEM in 25 μl in 384-well plates with each compound dose plated in triplicate. An equal volume of S2, H2, or SC cells (24,000 cells/well) suspended in phenol red–free DMEM with 10% fetal bovine serum and 1× penicillin/streptomycin were added. Cells were grown 24 h and then assayed first by using the CellTiter-Fluor reagent (20 μl) followed by the addition of Bright-Glo (65 μl) luciferase assay, using a multimode plate reader (Beckman; DT880). Values were reported as the mean ± SD with n = 3. IC50s were determined by the Hill coefficient method using an online tool (https://www.aatbio.com/tools/ic50-calculator).

[4] = Secondary assays: multiplexed cell viability (CellTiter-Fluor); settings: human
Protocol: The values for H2 and S2 were used as replicates to calculate IC50s and to assess cell viability.
as §1

ATXN2-luc [5] = test: MSSR hit retest: ATXN2-luc luciferase assay, average of H2 and S1 cells (1 and 10 uM); assay type: cell-based, human; settings: Homo sapiens; for activity at 1 µM: read-out: H2&S1 ave luc 1uM; for activity at 10 µM: head line r3 10uM
Description: (§2) Supplement mmc2.xlsx, sheet "43 annotated compounds"

H2 and S1 cells = test: Paired MTT viability assay, average of H2 and S1 cells (1 and 10 uM); assay type: cell-based, human; settings: Homo sapiens
Description: as §2

CMV-luc [6] = test: MSSR counterscreen: CMV-luc expression in HC cells; assay type: cell-based, human; settings: for CMV-luc, averages as percent of no compound control: HC cells, n=4 wells; for ATXN2 luc activity (call): summary call for the 12 pilot compounds tested on CMV-luc
ATXN2-luc [7] = test: NCATS qHTS (LOPAC pilot, primary and confirmation): ATXN2-luc in S2 cells, 1536-well, Steady-Glo; assay type: cell-based, human
In short: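 […] S2 cells expressing ATXN2-luc in phenol red–free DMEM screened in 1536-well qHTS format. Luciferase read by Steady-Glo luminescence after 5 min at room temperature (2 s exposure), multiplexed with CellTiter-Fluor viability.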

ATXN2-luc [8] = test: MSSR hit retest / multiconcentration testing: ATXN2-luc luciferase assay in H2 cells (1 and 10 μM); assay type: cell-based, human; settings: 1 uM compound; luciferase, average of H2 and S1 cells expressing ATXN2-luc; rescreen
[9] = pilot screen at 10 µM compound, H2 cells expressing ATXN2-luc
[10] = 1 uM compound, average of H2 and S1 cells
[11] = average of H2 and S1 cells, read-out: H2&S1 ave luc 10uM
[12] = 1 uM compound, read-out: H2&S1 ave MTT 1uM
[13] = 10 uM compound, read-out: H2&S1 ave MTT 10uM
[14] = Homo sapiens, LOPAC library screening optimization, logarithm of AC50 (negative values), read-out: Log AC50 (converted)
[15] = Homo sapiens, LOPAC library screening optimization, read-out: AC50
[16] = LOPAC library screening optimization, read-out: AC50

Compound | IC50 (ATXN2-luc [2]) | min ATXN2-luc (%) (ATXN2-luc [2]) | min SC luc (%) (CMV-luc [3]) | viability at 24 h [4] | further results
CC[C@@]1(O)C(=O)OCc2c1cc1n(c2=O)Cc2cc3ccccc3nc2-1 [Camptothecine (S+)] | 40 nM | 14.3715% | 42.7084% | 92.1% | SD from mean (ATXN2-luc, Z-score) (ATXN2-luc [1]): -5.283 SD
C[C@H]1O[C@@H](O[C@H]2[C@@H](O)C[C@H](O[C@H]3[C@@H](O)C[C@H](O[C@H]4CC[C@@]5(C)[C@H](CC[C@@H]6[C@@H]5C[C@@H](O)[C@]5(C)[C@@H](C7=CC(=O)OC7)CC[C@]65O)C4)O[C@@H]3C)O[C@@H]2C)C[C@H](O)[C@@H]1O [Digoxin] | – | 9.041% | 107.579% | 67.9% | SD from mean (ATXN2-luc, Z-score) (ATXN2-luc [1]): -3.904 SD; SD from mean (pilot screen) (ATXN2-luc [1]; pilot screen): -3.904 SD; SD from mean (pilot screen) (ATXN2-luc [1]; [9]): -3.904; ¦Score/1SD¦ (ATXN2-luc [1]; pilot screen): 4.38; activity at 1 µM (ATXN2-luc [5]): 47%; activity (ATXN2-luc [5]; read-out: H2&S1 ave luc 10uM): 12%; viability at 1 µM (H2 and S1 cells; read-out: H2&S1 ave MTT 1uM, 1 uM compound): 78.7%; viability at 10 µM (H2 and S1 cells; read-out: H2&S1 ave MTT 10uM, 10 uM compound): 73.5%
COc1ccc(CN2CCN(C(c3ccc(F)cc3)c3ccc(F)cc3)CC2)c(OC)c1OC [LOMERIZINE DiHCl] | – | – | – | – | SD from mean (ATXN2-luc, Z-score) (ATXN2-luc [1]): -2.782 SD; SD from mean (pilot screen) (ATXN2-luc [1]; pilot screen): -2.782 SD; SD from mean (pilot screen) (ATXN2-luc [1]; pilot screen, H2 cells expressing ATXN2-luc, single dose printed as 10 μM compound): -2.782; ¦Score/1SD¦ (ATXN2-luc [1]; pilot screen): 3.09; CMV-luc, averages as percent of no compound control (CMV-luc [6]; 0.1 uM compound): 97.7058% of no compound control; CMV-luc, averages as percent of no compound control (CMV-luc [6]; 1 uM compound): 102.901% of no compound control; CMV-luc, averages as percent of no compound control (CMV-luc [6]; 10 uM compound): 80.3815% of no compound control; inhibition at 1 µM (CMV-luc [6]; Homo sapiens, read-out: CMV-luc inhibition @ 1 uM): 0%; inhibition at 10 µM (CMV-luc [6]; Homo sapiens, read-out: CMV-luc inhibition @ 10 uM): 20%; ATXN2 luc activity (call) (CMV-luc [6]): Unclear; activity at 1 µM (ATXN2-luc [5]; [10]): 102%; activity at 10 µM (ATXN2-luc [5]; [11]): 55%; viability at 1 µM (H2 and S1 cells; [12]): 101%; viability at 10 µM (H2 and S1 cells; [13]): 37.6%
O=c1[nH]c(=O)n([C@H]2C[C@H](O)[C@@H](CO)O2)cc1F [NCGC00023722-07, Floxuridine] | 166 nM | 25.6595% | 37.5061% | 97.9% | –
N[C@@H](Cc1ccc(N(CCCl)CCCl)cc1)C(=O)O [NCGC00090757-05, Melphalan] | – | 44.8372% | 79.9664% | 89.3% | –
CC[C@H](CO)Nc1nc(NCc2ccccc2)c2ncn(C(C)C)c2n1 [NCGC00094374-05, roscovitine] | – | 57.3224% | 82.4469% | 77.8% | AC50 (ATXN2-luc [7]; [14]): 28200 nM; AC50 (ATXN2-luc [7]; [15]): 28200 nM; Log AC50 (ATXN2-luc [7]; LOPAC library screening optimization, logarithm of AC50 (negative values)): -4.5; AC50 (ATXN2-luc [7]; [16]): 31600 nM
C=CCNC1=C2C[C@@H](C)C[C@H](OC)[C@H](O)[C@@H](C)/C=C(\C)[C@H](OC(N)=O)[C@@H](OC)/C=C\C=C(/C)C(=O)NC(=CC1=O)C2=O [NCGC00163424-03, tanespimycin] | 442 nM | 23.7455% | 96.2287% | 83.6% | –
COc1cc2ncn(-c3cc(OCc4ccccc4C(F)(F)F)c(C(N)=O)s3)c2cc1OC [NCGC00242217-04, GW843682X] | 9770 nM | 57.1311% | 87.9923% | 75.5% | –
O=C(NC1CCNCC1)c1[nH]ncc1NC(=O)c1c(Cl)cccc1Cl [NCGC00263091-01, AT7519] | 162 nM | 14.5407% | 103.668% | 50.3% | –
S=C(NCc1ccc2c(c1)OCO2)N1CCN(c2ncnc3c2oc2ccccc23)CC1 [NCGC00263158-01, MP470] | 3020 nM | 55.0637% | 74.2577% | 87.7% | –
CNC(=O)c1cc(Oc2ccc(NC(=O)Nc3cc(C(C)(C)C)nn3-c3ccc4ncccc4c3)c(F)c2)ccn1 [NCGC00263172-01, DCC-2036] | 3730 nM | 27.0713% | 60.5803% | 56.6% | –
C=CCn1c(=O)c2cnc(Nc3ccc(N4CCN(C)CC4)cc3)nc2n1-c1cccc(C(C)(C)O)n1 [NCGC00263183-01, MK 1775] | 343 nM | 21.7344% | 63.0447% | 77.9% | –
Cc1cc(Nc2cc(CN3CCOCC3)c3nc(C)c(Cc4ccc(Cl)cc4F)n3n2)n[nH]1 [NCGC00345461-02, LY2784544] | 21100 nM | 23.1503% | 67.1857% | 81.6% | –
O=C1NC(=O)/C(=C/c2ccc3nccc(-c4ccncc4)c3c2)S1 [NCGC00346509-01, GSK 1059615] | 57500 nM | 51.4419% | 85.5514% | 75.5% | –
CN(C)CCN1C(=O)c2cccc3cc(N)cc(c23)C1=O [NCGC00346513-01, amonafide] | 1840 nM | 21.7231% | 69.6561% | 68.2% | –
CNC(=O)c1nn(C)c2c1C(C)(C)Cc1cnc(Nc3ccc(N4CCN(C)CC4)cc3)nc1-2 [NCGC00346673-01, PHA-848125] | 436 nM | 15.8759% | 96.2246% | 74.4% | –
CC(C)c1cc(C(=O)N2Cc3ccc(CN4CCN(C)CC4)cc3C2)c(O)cc1O [NCGC00346674-01, AT13387] | 178 nM | 22.3111% | 71.1894% | 90.6% | –
C[C@@H]1O[C@@H](O[C@H]2C[C@@H](O)[C@]3(CO)[C@H]4[C@H](O)C[C@]5(C)[C@@H](C6=CC(=O)OC6)CC[C@]5(O)[C@@H]4CC[C@]3(O)C2)[C@H](O)[C@H](O)[C@H]1O [OUABAIN] | 122 nM | 6.982% | 122.219% | 74.3% | SD from mean (ATXN2-luc, Z-score) (ATXN2-luc [1]): -3.832 SD; SD from mean (pilot screen) (ATXN2-luc [1]; pilot screen): -3.832 SD; SD from mean (pilot screen) (ATXN2-luc [1]; [9]): -3.832; ¦Score/1SD¦ (ATXN2-luc [1]; pilot screen): 4.26; AC50 (ATXN2-luc [7]; [14]): < 90 nM; AC50 (ATXN2-luc [7]; [15]): < 90 nM; Curve Class (ATXN2-luc [7]; LOPAC library (1,280 compounds) screening optimization, signed sub-classes (-1.1, -2.2, -3 ...)): -1.1; AC50 (ATXN2-luc [7]; [16]): 112 nM; activity at 1 µM (ATXN2-luc [5]; [10]): 14%; activity at 10 µM (ATXN2-luc [5]; [11]): 12%; viability at 1 µM (H2 and S1 cells; [12]): 51.8%; viability at 10 µM (H2 and S1 cells; [13]): 60.4%
CN1CCN(CCCN2c3ccccc3Sc3ccc(C(F)(F)F)cc32)CC1 [TRIFLUOPERAZINE HYDROCHLORIDE] | – | – | – | – | SD from mean (ATXN2-luc, Z-score) (ATXN2-luc [1]): -5.856 SD; SD from mean (pilot screen) (ATXN2-luc [1]; pilot screen): -5.856 SD; SD from mean (pilot screen) (ATXN2-luc [1]; [9]): -5.856; ¦Score/1SD¦ (ATXN2-luc [1]; pilot screen): 6.51; H2&S1 ave luc 1uM (ATXN2-luc [8]): 105; CMV-luc, averages as percent of no compound control (CMV-luc [6]; 0.1 uM compound): 94.6408% of no compound control; CMV-luc, averages as percent of no compound control (CMV-luc [6]; 1 uM compound): 100.563% of no compound control; CMV-luc, averages as percent of no compound control (CMV-luc [6]; 10 uM compound): 98.5115% of no compound control; Comment on CMV-luc inhibition (CMV-luc [6]; result in words): No CMV-luc inhibition at 10 uM; ATXN2 luc activity (call) (CMV-luc [6]): Unclear; activity at 1 µM (ATXN2-luc [5]; [10]): 105%; activity at 10 µM (ATXN2-luc [5]; [11]): 1.54%; viability at 1 µM (H2 and S1 cells; [12]): 88.1%; viability at 10 µM (H2 and S1 cells; [13]): 8.76%
